Test results reported in patent US20160015700A1, “4-CYANO-N-(2-(4,4-DIMETHYLCYCLOHEX-1-EN-1-YL)-6-(2,2,6,6-TETRAMETHYLTETRAHYDRO-2H-PYRAN-4-YL)PYRIDIN-3-YL)-1H-IMIDAZOLE-2-CARBOXAMIDE FOR THE TREATMENT OF HODGKIN'S LYMPHOMA” (JANSSEN PHARMACEUTICA NV, priority 2013, published 2016).

Test system: classical Hodgkin's Lymphoma patient
Assay: Case study: treatment of a classical Hodgkin's Lymphoma patient, response by CT/MRI scan and PET scan (Cheson criteria)
Format: in vivo, human
Details: 150 mg orally 1 time a day, Cheson 2007 criteria
Procedure: A classical Hodgkin's Lymphoma patient, diagnosed with Stage II in Hodgkin Lymphoma in January 2006, and previously treated with radiotherapy and three different regimens of chemotherapy, including an autologous stem cell transplantation was treated with 150 mg of the compound of formula (I), administered orally 1 time a day. In addition to the compound of formula (I), the patient was taking the following medications and dosages: (a) DEKRISTOL (cholecalciferol), 20000 I.U. QOD for vitamin deficiency, (b) methylphenidate hydrochloride, 20 mg DAILY for fatigue, (c) ibuprofen, 600 mg PRN for back pain, and (d) VALORON N (tilidine) 50 IN 20 DROPS PRN for back pain.
Response to treatment was evaluated by tumor assessments using CT/MRI scan and PET scan, resulting in an individual response for each technique. In addition, an overall response evaluation was completed, taking into account both scan results. Response evaluations were completed according to the criteria as set forth in CHESON, B. D., et al., J. Clin. Oncology, 2007, pp579-586, Vol. 25(5).

CC1(C)CC=C(c2nc(C3CC(C)(C)OC(C)(C)C3)ccc2NC(=O)c2nc(C#N)c[nH]2)CC1 [compound of formula (I), 4-cyano-N-(2-(4,4-dimethylcyclohex-1-en-1-yl)-6-(2,2,6,6-tetramethyltetrahydro-2H-pyran-4-yl)pyridin-3-yl)-1H-imidazole-2-carboxamide]
response status at later follow-up (as of 13 Mar. 2013): still in complete response
overall response to treatment (evaluated after 121 days of treatment, previously treated classical Hodgkin's Lymphoma patient): complete response to treatment
